According to paper PMC4765732 (Journal of medicinal chemistry, 2015):

Key:
HIV-1LAI = experiment: Antiviral assay in MT-2 human T-lymphocytes exposed to HIV-1LAI; format: cell-based
HIV-1DRV^RP51 = format: cell-based; conditions: against HIV-1DRV^RP51

| Structure (SMILES) | improvement in antiviral activity over the methyl and ethyl derivatives (HIV-1LAI; antiviral IC50 versus 25f and 25i) | improvement in EC50 values over darunavir (HIV-1DRV^RP51) [fold] | loss in antiviral activity (HIV-1LAI; versus Boc-derivative 25c) [fold] |
| --- | --- | --- | --- |
| COc1ccc(S(=O)(=O)N(CC(C)C)C[C@@H](O)[C@H](Cc2ccccc2)NC(=O)O[C@H]2CO[C@H]3OC[C@H](NC(C)C)[C@H]32)cc1 [Inhibitor 25j, (3R,3aS,4R,6aR)-4-(Isopropylamino)hexahydrofuro[2,3-b]furan-3-yl ((2S,3R)-3-hydroxy-4-((N-isobutyl-4-methoxyphenyl)sulfonamido)-1-phenylbutan-2-yl)carbamate] | over 60 fold | 10 |  |
| CCN[C@H]1CO[C@@H]2OC[C@H](OC(=O)N[C@@H](Cc3ccccc3)[C@H](O)CN(CC(C)C)S(=O)(=O)c3ccc(OC)cc3)[C@@H]21 [Inhibitor 25i] |  | 10 |  |
| COc1ccc(S(=O)(=O)N(CC(C)C)C[C@@H](O)[C@H](Cc2ccccc2)NC(=O)O[C@H]2CO[C@H]3OC[C@H](N(C)C(=O)OC(C)(C)C)[C@H]32)cc1 [Inhibitor 25e, (3R,3aS,4R,6aR)-4-((2S,3R)-3-Hydroxy-4-(N-isobutyl-4-methoxyphenylsulfonamido)-1-phenylbutan-2-ylcarbamoyloxy)hexahydrofuro[2,3-b]furan-3-yl methyl t-butyl carbamate] |  |  | ~10 |
